# Key:
# [1] = tested on: UM-UC-3 (bladder); assay: Cell proliferation assay (CellTiter-Glo, 3 days treatment), UM-UC-3; type: cell-based; conditions: read-out: Absolute IC50
# Source text: (§1) The cell lines tested included as follows: UM-UC-3 (bladder), KYSE-410 (HN/Esophagus), SW1463 (rectum), Calu-1 (Lung), NCI-H358 (Lung), SW837 (Rectum), SW756 (Cervix), NCI-H2122 (Lung), NCI-H1373 (Lung), NCI-H1792 (Lung), NCI-H23 (Lung), MIA PaCa-2 (Pancreas), and HC44.
# (§2) Cells were recovered and maintained in appropriate culture media. The cells were harvested respectively during the logarithmic growth period. The cells were then resuspended and counted using a Vi cell counter (The cell viability be measured by trypan blue exclusion assay.). The cells were then diluted and 90 μL cell suspensions were used in 96-well plates according to plate map with final cell density. Two duplicate plates were set up. One is for day 0 reading (TO) and the other was cultured in incubator for reading at the end point. The incubated plates were incubated overnight in humidified incubator at 37° C. with 5% CO2.
# (§3) At day 0, 10 μL culture medium to each well for TO reading. 10 μL of culture medium was added to each well for TO reading. Then, 50 μl CellTiter-Glo® Reagent was added to each well. […] Luminescence was then recorded using an EnVision Multi Label Reader. […]
# (§4) For the endpoint CTG reading, 50 μL of CellTiter-Glo® Reagent were added to each well. […] Luminescence was then recorded using an EnVision Multi Label Reader. IC50's were determined for each cell line.
# [2] = tested on: KYSE-410 (HN/Esophagus); assay: Cell proliferation assay (CellTiter-Glo, 3 days treatment), KYSE-410; type: cell-based; conditions: read-out: Absolute IC50
# Source text: as §1, §2, §3, §4
# [3] = tested on: SW1463 (rectum); assay: Cell proliferation assay (CellTiter-Glo, 3 days treatment), SW1463; type: cell-based; conditions: read-out: Absolute IC50
# Source text: as §1, §2, §3, §4
# [4] = tested on: Calu-1 (Lung); assay: Cell proliferation assay (CellTiter-Glo, 3 days treatment), Calu-1; type: cell-based; conditions: read-out: Absolute IC50
# Source text: as §1, §2, §3, §4
# [5] = tested on: NCI-H358 (Lung); assay: Cell proliferation assay (CellTiter-Glo, 3 days treatment), NCI-H358; type: cell-based; conditions: NCI-H358 (Lung), 3 days treatment; read-out: Absolute IC50
# Source text: as §1, §2
# At day 0, 10 μL culture medium to each well for TO reading. Then, 50 μl CellTiter-Glo® Reagent was added to each well. The contents were then mixed for 2 minutes on an orbital shaker to facilitate cell lysis. The plates were then allowed to incubate at room temperature for 10 minutes to stabilize luminescent signal. Luminescence was then recorded using an EnVision Multi Label Reader. The test compound Compound I, and a control cisplatin, where then diluted at various concentrations from a 10 mM stock solution. Compound I was diluted and 10 μL of each 10× compound I from working solutions for a concentration ranging from 10 μM to about 0.005 μM. Cisplatin was diluted to about […] to about 150 nM. The screening plates were then placed back into the incubator for the appropriate treatment time (3 days).
# For the endpoint CTG reading, 50 μL of CellTiter-Glo® Reagent were added to each well. The contents were then mixed for 2 minutes on an orbital shaker to facilitate cell lysis. […] Luminescence was then recorded using an EnVision Multi Label Reader. IC50's were determined for each cell line.
# [6] = tested on: SW837 (Rectum); assay: Cell proliferation assay (CellTiter-Glo, 3 days treatment), SW837; type: cell-based; conditions: read-out: Absolute IC50
# Source text: as §1, §2, §3, §4
# [7] = tested on: SW756 (Cervix); assay: Cell proliferation assay (CellTiter-Glo, 3 days treatment), SW756; type: cell-based; conditions: read-out: Absolute IC50
# Source text: as §1, §2, §3, §4
# [8] = tested on: NCI-H2122 (Lung); assay: Cell proliferation assay (CellTiter-Glo, 3 days treatment), NCI-H2122; type: cell-based; conditions: read-out: Absolute IC50
# Source text: as §1, §2, §3, §4
# [9] = tested on: NCI-H1373 (Lung); assay: Cell proliferation assay (CellTiter-Glo, 3 days treatment), NCI-H1373; type: cell-based; conditions: read-out: Absolute IC50
# Source text: as §1, §2, §3, §4
# [10] = tested on: NCI-H1792 (Lung); assay: Cell proliferation assay (CellTiter-Glo, 3 days treatment), NCI-H1792; type: cell-based; conditions: read-out: Absolute IC50
# Source text: as §1, §2, §3, §4
# [11] = tested on: NCI-H23 (Lung); assay: Cell proliferation assay (CellTiter-Glo, 3 days treatment), NCI-H23; type: cell-based; conditions: read-out: Absolute IC50
# Source text: as §1, §2, §3, §4
# [12] = tested on: MIA PaCa-2 (Pancreas); assay: Cell proliferation assay (CellTiter-Glo, 3 days treatment), MIA PaCa-2; type: cell-based; conditions: read-out: Absolute IC50
# Source text: as §1, §2, §3, §4
# [13] = tested on: HC44; assay: Cell proliferation assay (CellTiter-Glo, 3 days treatment), HC44; type: cell-based; conditions: HCC44 (Lung), read-out: Absolute IC50
# Source text: as §1, §2, §3, §4
# [14] = Solubility in 7 aqueous pH buffers and bio-relevant fluids at 37° C. (HPLC of supernatant; residual solids by XRPD); type: physicochemical
# Method: 20 mg of the free base Form A of Compound I was weighed into a 20 mL glass vial. Amounts of the salts equivalent to 20 mg anhydrous free base were weighed into a glass vial. 10 mL of solubility medium was added. The resulting suspensions/solutions were stirred at 37° C. at 400 rpm and sampled at 2 hours and at 24 hours, respectively. The samples were centrifuged at 37° C. at 14,000 rpm for 5 min. Supernatants were analyzed by HPLC and pH meter for solubility and pH value, respectively. Residual solids (wet cakes) from the 24 hours samples were also characterized by XRPD to determine physical form.
# Residual solids after the solubility test were analyzed by XRPD.
# [15] = Dynamic vapor sorption (DVS) analysis at 25° C.; type: physicochemical
# Method: In one embodiment, the crystalline forms are characterized by Dynamic Vapor Sorption (DVS). The DVS profile is typically expressed by a diagram plotting the sample relative humidity (RH) versus the change in mass (%). The DVS profile provides information on hygroscopicity of the crystalline form at different RH conditions.
# A DVS (dynamic vapor sorption) analysis at 25° C. was carried out on Form A** of Compound I benzenesulfonate salt as shown in FIG. 3D.
# [16] = Variable humidity XRPD (VH-XRPD) experiments at 25° C.; type: physicochemical; conditions: VH-XRPD and DVS isotherms
# Method: Variable humidity XRPD (VH-XRPD) experiments.
# XRPD analysis was carried out in each specific relative humidity at 25° C. Step: 40% RH (initial)-60% RH (4 h)-80% RH (4 h)-40% RH (4 h)-20% RH (4 h)-0% RH (4 h)-40% RH (4 h).
# [17] = ES1, pH 1.2 HCl solution (0.1N), 37° C.
# [18] = ES2, pH 4.5 acetate buffer (50 mM), 37° C.
# [19] = ES3, pH 6.8 phosphate buffer (50 mM), 37° C.
# [20] = ES4, pH 7.4 phosphate buffer (50 mM), 37° C.
compound,measurement,setting,value
"N.N.[Cl][Pt][Cl] [cisplatin, reference compound]",IC50,[1],1.86 µM
same,IC50,[2],15.8 µM
same,IC50,[3],12.2 µM
same,IC50,[4],10.2 µM
same,IC50,[5],12.5 µM
same,IC50,[6],42.5 µM
same,IC50,[7],10.3 µM
same,IC50,[8],17.8 µM
same,IC50,[9],8.72 µM
same,IC50,[10],4.88 µM
same,IC50,[11],3.58 µM
same,IC50,[12],7.03 µM
same,IC50,[13],7.96 µM
"C=CC(=O)NCC(=O)N1CCN(Cc2cc3c(N4CCOCC4)nc(-c4cnc(NC(=O)OC)cc4C(F)(F)F)nn3c2)CC1.O=P(O)(O)O [Form A* of Compound I phosphate salt, Methyl (5-(6-((4-(acryloylglycyl)piperazin-1-yl)methyl)-4-morpholinopyrrolo[2,1-f][1,2,4]triazin-2-yl)-4-(trifluoromethyl)pyridin-2-yl) carbamate phosphate salt]",solubility compared among forms,"[14]; 37° C., 2 h and 24 h, 7 aqueous pH buffers and bio-relevant fluids",highest solubility
same,Solubility for 2 h,[14]; [17],1200 µg/mL
same,"pH of supernatant, solubility for 2 h (pH)",[14]; [17],(1.2)
same,Solubility for 24 h,[14]; [17],1000 µg/mL
same,"pH of supernatant, solubility for 24 h (pH)",[14]; [17],(1.0)
same,Solubility for 2 h,[14]; [18],>2000 µg/mL
same,"pH of supernatant, solubility for 2 h (pH)",[14]; [18],(4.4)
same,Solubility for 24 h,[14]; [18],>2000 µg/mL
same,"pH of supernatant, solubility for 24 h (pH)",[14]; [18],(4.4)
same,Solubility for 2 h,[14]; [19],8.8 µg/mL
same,"pH of supernatant, solubility for 2 h (pH)",[14]; [19],(6.6)
same,Solubility for 24 h,[14]; [19],6.4 µg/mL
same,"pH of supernatant, solubility for 24 h (pH)",[14]; [19],(6.5)
same,Solubility for 2 h,[14]; [20],6.1 µg/mL
same,"pH of supernatant, solubility for 2 h (pH)",[14]; [20],(7.2)
same,Solubility for 24 h,[14]; [20],4.1 µg/mL
same,"pH of supernatant, solubility for 24 h (pH)",[14]; [20],(7.1)
same,Solubility for 2 h,"[14]; ES5, SGF, pH 2.0, 37° C.",>2000 µg/mL
same,"pH of supernatant, solubility for 2 h (pH)","[14]; ES5, SGF, pH 2.0, 37° C.",(1.9)
same,Solubility for 24 h,"[14]; ES5, SGF, pH 2.0, 37° C.",>2000 µg/mL
same,"pH of supernatant, solubility for 24 h (pH)","[14]; ES5, SGF, pH 2.0, 37° C.",(1.8)
same,Solubility for 2 h,"[14]; ES6, FaSSIF-v1, pH 6.5, 37° C.",26.8 µg/mL
same,"pH of supernatant, solubility for 2 h (pH)","[14]; ES6, FaSSIF-v1, pH 6.5, 37° C.",(6.2)
same,Solubility for 24 h,"[14]; ES6, FaSSIF-v1, pH 6.5, 37° C.",21.1 µg/mL
same,"pH of supernatant, solubility for 24 h (pH)","[14]; ES6, FaSSIF-v1, pH 6.5, 37° C.",(6.1)
same,Solubility for 2 h,"[14]; ES7, FeSSIF-v1, pH 5.0, 37° C.",1600 µg/mL
same,"pH of supernatant, solubility for 2 h (pH)","[14]; ES7, FeSSIF-v1, pH 5.0, 37° C.",(5.0)
same,Solubility for 24 h,"[14]; ES7, FeSSIF-v1, pH 5.0, 37° C.",1700 µg/mL
same,"pH of supernatant, solubility for 24 h (pH)","[14]; ES7, FeSSIF-v1, pH 5.0, 37° C.",(4.9)
same,maintenance of supersaturation,"[14]; pH 4.5 buffer, 37° C.",can be maintained for a longer time than the crystalline Form B* of Compound I maleate salt
same,hygroscopicity / water sorption behavior (DVS),[15],slightly hygroscopic in <90% RH. Then it becomes hygroscopic
same,relative humidity in which it converts to hydrate form (DVS),[15],> 30 % RH
same,relative humidity in which the form dehydrates (DVS),[15],< 30 % RH
same,solid form of the sample after the DVS test,[15],still the Form A* of Compound I phosphate salt
same,water uptake (DVS),[15]; from 40% to 95% RH,3.3%
same,relative humidity at which the form dehydrates and converts to anhydrate Form B of Compound I phosphate salt,[16],< 20 % RH
